The NIST ThermoML archive (doi:10.1016/j.jct.2012.01.025)
± gives the expanded uncertainty stated by the source.

Assays:
[1] = Molar enthalpy of transition or fusion; settings: Crystal; DSC
[2] = for vapor or sublimation pressure: Closed cell (Static) method
[3] = molar enthalpy of vaporization or sublimation; settings: 298.15 K; Crystal; Drop calorimetry

c1ccc2c(c1)-c1cccc3cccc-2c13 [fluoranthene]
Molar enthalpy of transition or fusion [1]: 4.63 ± 0.127 kcal/mol
vapor or sublimation pressure ([2]; 348.83 K, Crystal): 0.00042 ± 0.00012 kPa
vapor or sublimation pressure ([2]; 351.82 K, Crystal): 0.00056 ± 0.00012 kPa
vapor or sublimation pressure ([2]; 354.78 K, Liquid): 0.00117 ± 0.00013 kPa
vapor or sublimation pressure ([2]; 354.79 K, Crystal): 0.00076 ± 0.00013 kPa
vapor or sublimation pressure ([2]; 356.76 K, Liquid): 0.00137 ± 0.00013 kPa
vapor or sublimation pressure ([2]; 357.77 K, Crystal): 0.00101 ± 0.00013 kPa
vapor or sublimation pressure ([2]; 360.71 K, Liquid): 0.00185 ± 0.00014 kPa
vapor or sublimation pressure ([2]; 360.73 K, Crystal): 0.0013 ± 0.00013 kPa
vapor or sublimation pressure ([2]; 363.72 K, Crystal): 0.00171 ± 0.00014 kPa
vapor or sublimation pressure ([2]; 366.68 K, Crystal): 0.00225 ± 0.00015 kPa
vapor or sublimation pressure ([2]; 366.68 K, Liquid): 0.0029 ± 0.00017 kPa
vapor or sublimation pressure ([2]; 368.53 K, Liquid): 0.0033 ± 0.00018 kPa
vapor or sublimation pressure ([2]; 369.65 K, Crystal): 0.00292 ± 0.00017 kPa
vapor or sublimation pressure ([2]; 370.63 K, Liquid): 0.00384 ± 0.0002 kPa
vapor or sublimation pressure ([2]; 372.57 K, Liquid): 0.00438 ± 0.00021 kPa
vapor or sublimation pressure ([2]; 372.62 K, Crystal): 0.00379 ± 0.0002 kPa
vapor or sublimation pressure ([2]; 374.61 K, Liquid): 0.00509 ± 0.00024 kPa
vapor or sublimation pressure ([2]; 375.59 K, Crystal): 0.00491 ± 0.00023 kPa
vapor or sublimation pressure ([2]; 378.57 K, Liquid): 0.0067 ± 0.00029 kPa
vapor or sublimation pressure ([2]; 382.51 K, Liquid): 0.00865 ± 0.00036 kPa
vapor or sublimation pressure ([2]; 384.49 K, Liquid): 0.00979 ± 0.0004 kPa
vapor or sublimation pressure ([2]; 386.46 K, Liquid): 0.01118 ± 0.00046 kPa
vapor or sublimation pressure ([2]; 388.46 K, Liquid): 0.01265 ± 0.00051 kPa
vapor or sublimation pressure ([2]; 390.43 K, Liquid): 0.01425 ± 0.00054 kPa
vapor or sublimation pressure ([2]; 392.43 K, Liquid): 0.0161 ± 0.00057 kPa
vapor or sublimation pressure ([2]; 394.39 K, Liquid): 0.0181 ± 0.0006 kPa
vapor or sublimation pressure ([2]; 396.38 K, Liquid): 0.02041 ± 0.00063 kPa
vapor or sublimation pressure ([2]; 398.36 K, Liquid): 0.02287 ± 0.00067 kPa
vapor or sublimation pressure ([2]; 400.35 K, Liquid): 0.02578 ± 0.00071 kPa
vapor or sublimation pressure ([2]; 402.34 K, Liquid): 0.02887 ± 0.00076 kPa
vapor or sublimation pressure ([2]; 404.3 K, Liquid): 0.03224 ± 0.00081 kPa
Normal melting temperature ([2]; Crystal, DTA): 109.69 ± 0.4 °C
molar enthalpy [3]: 23 ± 0.669 kcal/mol
